Measured values taken from US8669284B2, “Pharmaceutical composition comprising a bi-cyclic compound and method for stabilizing the bi-cyclic compound” (Sucampo AG, priority 2006, dated 2014).

Experiments:
Type in all cases: physicochemical
[1] = Stability of soft gelatin capsule of compound 1 at 40° C.; settings: fill 240 μg/g in medium chain fatty acid triglyceride; for conc. (% of Initial) 40° C. 1 mo: 1 month; for conc. (% of Initial) 40° C. 2 mo: 2 months
Procedure: Glycerin in an amount shown in Table 3 was added in an appropriate amount of water, stirred and heated. Then, gelatin 100 parts by weight was added thereto to give gelatin solution. Compound 1 was dissolved in medium chain fatty acid triglyceride (USP/NF grade) to give a fill solution containing 240 μg/g of compound 1. The gelatin solution and the fill solution were loaded on capsule forming and filling machine to give capsule containing the fill solution, and dried to give soft gelatin capsule.
The capsule was put in a sealed container and kept at 40° C. for 2 months. The concentration of compound 1 in the fill solution contained in the capsule was determined after 1 and 2 months storage in the same manner as EXAMPLE 1.

[2] = Stability of compound 1 in medium chain fatty acid triglyceride kept with gelatin/glycerin piece at 40° C.; settings: 60 μg/g in medium chain fatty acid triglyceride with gelatin piece (gelatin 100, glycerin 35 parts by weight), sealed container, 21 days, on the basis of theoretical amount
Procedure: One hundred (100) parts by weight of gelatin (Type A, high bloom, SKW Biosystems #195F) and 35 parts by weight of glycerin, a plasticizer, were mixed in water and dried to give gelatin piece whose water content was about 4%. Compound 1 was dissolved in medium chain fatty acid triglyceride (USP/NF grade) to give a liquid mixture comprising 60 μg/g of the compound. 0.5 g of the liquid mixture and 0.5 g of gelatin piece were put together in a sealed container and kept at 40° C. for 21 days. The concentration of compound 1 contained in the liquid mixture was determined in the same manner as Example 1. As a result, the amount of the compound 1 at day 21 was 97.0% on the basis of a theoretical amount (60 μg/g).

[3] = Stability of compound 1 in vehicle solution, 55° C. storage, HPLC; settings: for Concentration of compound 1 after 55° C. storage, day 10: 55° C. for 10 days; for Concentration of compound 1 after 55° C. storage, day 10 / Concentration of compound 1, day 0: percentage based on the theoretical amount; for Concentration of compound 1, day 0: before storage
Procedure: Compound 1 was dissolved in a vehicle shown in table 1 below to give 240 μg/g solution (sample). The precise concentration of Compound 1 in the solution was determined by means of HPLC (day 0). Then, the solution was put in a hard grass container and kept at 55° C. for 10 days, and then the precise concentration of the compound 1 in the solution was determined by means of HPLC (day 10).
The determination of the concentration of the compound in the sample was carried out as follows. About 0.2 g of the sample was mixed with exactly 2 ml of internal standard solution and then with a dissolving agent shown in Table 1 to give 5 mL of sample solution. About 12 mg of the reference standard compound 1 was weighted precisely and added with acetonitrile to give exactly 100 ml solution. Exactly 0.8 ml of the solution was obtained and added with exactly 4 ml of the internal standard solution, and then added with the dissolving agent to give 10 ml of standard solution.
The fluorescent labeling agent was added to the respective solution, stirred and stood at room temperature. Then, the respective solution in an amount that theoretically gives 3.6 ng of compound 1 was loaded on the column and analyzed under the condition as follows:
Column: 5 mm×25 cm stainless steel column packed with octadecylsilane treated silica gel for HPLC (5 μm)
Mobile phase: mixture of acetonitrile HPLC grade: methanol HPLC grade: ammonium acetate (0.05 mol/L)

[4] = soft gelatin capsule shell gelatin 100, glycerin 45 parts by weight
[5] = soft gelatin capsule shell gelatin 100, glycerin 55 parts by weight
[6] = vehicle glycerin, 240 μg/g solution
[7] = vehicle isopropyl palmitate, 240 μg/g solution
[8] = vehicle linolenic acid (comparative), 240 μg/g
[9] = vehicle oleic acid (comparative), 240 μg/g
[10] = vehicle polyethylene glycol 400, 240 μg/g solution
[11] = vehicle propylene glycol ester of fatty acid, 240 μg/g solution
[12] = vehicle propylene glycol, 240 μg/g solution

CCCCC(F)(F)[C@@]1(O)CC[C@H]2[C@@H](CC(=O)[C@@H]2CCCCCCC(=O)O)O1 [Compound 1, 7-[(2R,4aR,5R,7aR)-2-(1,1-difluoropentyl)-2-hydroxy-6-oxooctahydrocyclopenta[b]pyran-5-yl]heptanoic acid]
conc. (% of Initial) 40° C. 1 mo [1, 4]: 100.0% | conc. (% of Initial) 40° C. 2 mo [1, 4]: 98.7% | conc. (% of Initial) 40° C. 1 mo [1, 5]: 97.7% | conc. (% of Initial) 40° C. 2 mo [1, 5]: 94.0% | amount of the compound 1 at day 21 [2]: 97.0% | stability of compound 1 ([3]; admixing with a polyol and/or a fatty acid ester other than glyceride, versus comparative vehicles): significantly improved | Concentration of compound 1 after 55° C. storage, day 10 [3, 6]: 78.0% | Concentration of compound 1, day 0 [3, 6]: 92.0% | Concentration of compound 1 after 55° C. storage, day 10 ([3]; vehicle hydrogenated maltose starch syrup (comparative), 240 μg/g): 24.4% | Concentration of compound 1 after 55° C. storage, day 10 [3, 7]: 99.1% | Concentration of compound 1, day 0 [3, 7]: 98.9% | Concentration of compound 1 after 55° C. storage, day 10 [3, 8]: 33.1% | Concentration of compound 1, day 0 [3, 8]: 74.8% | Concentration of compound 1 after 55° C. storage, day 10 [3, 9]: 57.3% | Concentration of compound 1, day 0 [3, 9]: 101.7% | Concentration of compound 1 after 55° C. storage, day 10 [3, 10]: 90.1% | Concentration of compound 1, day 0 [3, 10]: 98.2% | Concentration of compound 1 after 55° C. storage, day 10 [3, 11]: 89.0% | Concentration of compound 1, day 0 [3, 11]: 99.9% | Concentration of compound 1 after 55° C. storage, day 10 [3, 12]: 88.6% | Concentration of compound 1, day 0 [3, 12]: 97.8% | Concentration of compound 1 after 55° C. storage, day 10 ([3]; vehicle sugar alcohol solution derived from corn starch (comparative), 240 μg/g): 26.3%
